Source: PMC11274715 (2024)

Legend:
Test in all cases: ITC
Details in all cases: 40 mM NaCl, 5 mM MgCl2; 25 mM Tris-HCl pH 7.5, 25 °C; single-site model
[1] = test system: SAM-VI WT RNA (RNA, riboswitch) ACAACAGAAUGAACCAACGUAUCAUUGUGCCUUAUCCGCAAAAGGCGGGUAGGGCGAUAAGUCCGAAAGAGGGAUGAUAUG
[2] = test system: SAM-VI AP RNA (RNA, riboswitch) CGUAUCAUUGUGCCUUAUCCGCAAAAGGCGGGUAGGGCGAUAAGUCCGAAAGAGGGAUGAUAUG
[3] = test system: SAM-VI M2 RNA (RNA, riboswitch) ACAACAGAAUGAACCAACGUAUCAUUGUGCCUUAUCCGCAAAAGGCGGGUAGGGCGAUAAGUCCGAAAGAGGGAUGAU

**Q.** With `C[S+](CC[C@H](N)C(=O)O)C[C@H]1O[C@@H](n2cnc3c(N)ncnc32)[C@H](O)[C@@H]1O` (stereo partly drawn) as the compound, how does the affinity [1] read?
**A.** 8.95 µM

**Q.** And the affinity [2]?
**A.** 5.33 µM

**Q.** And the Kd [3]?
**A.** 419.95 µM
